Measurements as given in the supplement of paper PMC10307832.

Legend:
Assay in all cases: relative viability (nuclei count vs DMSO), 5 days (fraction); higher = more cells survive
DM3189 + Navitoclax = compound: C1CN(CCN1)C2=CC=C(C=C2)C3=CN4C(=C(C=N4)C5=CC=NC6=CC=CC=C56)N=C3 [DM3189] + CC1(C)CCC(c2ccc(Cl)cc2)=C(CN2CCN(c3ccc(C(=O)NS(=O)(=O)c4ccc(N[C@H](CCN5CCOCC5)CSc5ccccc5)c(S(=O)(=O)C(F)(F)F)c4)cc3)CC2)C1 [Navitoclax] (partner 0.5 µM)
Summary of the method: (§1)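 For relative viability, nuclei counts in treated wells were divided by those in vehicle wells. Lung cancer cell lines had been pin-tool dosed in 1536-well plates the day after seeding and cultured for 5 days, then fixed and stained in one step (final 0.05% Triton X-100, 1% formaldehyde, 1 ug/ml Hoechst) and imaged at 4×. Doses were one drug alone or a fixed anchor-drug dose plus five library-drug doses (not always all listed) in √10 steps, and values are duplicate-plate medians.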

DM3189 + Vorinostat = compound: C1CN(CCN1)C2=CC=C(C=C2)C3=CN4C(=C(C=N4)C5=CC=NC6=CC=CC=C56)N=C3 [DM3189] + O=C(CCCCCCC(=O)Nc1ccccc1)NO [Vorinostat] (partner 1 µM)
Summary of the method: as §1

DM3189 + Lapatinib = compound: C1CN(CCN1)C2=CC=C(C=C2)C3=CN4C(=C(C=N4)C5=CC=NC6=CC=CC=C56)N=C3 [DM3189] + CS(=O)(=O)CCNCc1ccc(-c2ccc3ncnc(Nc4ccc(OCc5cccc(F)c5)c(Cl)c4)c3c2)o1 [Lapatinib] (partner 2 µM)
Summary of the method: as §1

DM3189 + Dasatinib = compound: C1CN(CCN1)C2=CC=C(C=C2)C3=CN4C(=C(C=N4)C5=CC=NC6=CC=CC=C56)N=C3 [DM3189] + Cc1nc(Nc2ncc(C(=O)Nc3c(C)cccc3Cl)s2)cc(N2CCN(CCO)CC2)n1 [Dasatinib] (partner 0.075 µM)
Summary of the method: as §1

DM3189 = compound: C1CN(CCN1)C2=CC=C(C=C2)C3=CN4C(=C(C=N4)C5=CC=NC6=CC=CC=C56)N=C3 [DM3189]
Summary of the method: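 Viability was read as treated-well nuclei divided by vehicle-well nuclei, using the median across plates. Lung cancer cell lines in 1536-well plates were kept overnight at 37 °C, pinned with five √10-spaced library-drug doses, and after 5 days were Hoechst-stained, imaged at 4× and counted in MetaXpress. Plates passed only with control CV below 25% and at least one doubling.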

Cell Line | relative viability (DM3189 + Navitoclax; first compound 0.08 µM) | relative viability (DM3189 + Navitoclax; first compound 0.253 µM) | relative viability (DM3189 + Navitoclax; first compound 0.8 µM) | relative viability (DM3189 + Navitoclax; first compound 2.53 µM) | relative viability (DM3189 + Vorinostat; first compound 0.08 µM) | relative viability (DM3189 + Vorinostat; first compound 0.253 µM) | relative viability (DM3189 + Vorinostat; first compound 0.8 µM) | relative viability (DM3189 + Vorinostat; first compound 2.53 µM) | relative viability (DM3189 + Lapatinib; first compound 0.08 µM) | relative viability (DM3189 + Lapatinib; first compound 0.253 µM) | relative viability (DM3189 + Lapatinib; first compound 0.8 µM) | relative viability (DM3189 + Lapatinib; first compound 2.53 µM) | relative viability (DM3189 + Dasatinib; first compound 0.08 µM) | relative viability (DM3189 + Dasatinib; first compound 0.253 µM) | relative viability (DM3189 + Dasatinib; first compound 0.8 µM) | relative viability (DM3189 + Dasatinib; first compound 2.53 µM) | relative viability (DM3189; 0.08 µM) | relative viability (DM3189; 0.253 µM) | relative viability (DM3189; 0.8 µM) | relative viability (DM3189; 2.53 µM)
NCI-H596 | 1.01 | 1.09 | 0.917 | 1.06 | 0.606 | 0.669 | 0.605 | 0.756 | 1.19 | 1.06 | 0.799 | 0.99 | 0.747 | 0.71 | 0.497 | 0.609 | 1.13 | 0.85 | 1.05 | 0.996
NCI-H1993 |  | 0.883 | 0.646 | 0.999 | 0.856 | 0.803 | 0.813 | 0.854 |  | 0.533 | 0.722 | 0.746 | 0.657 | 0.552 | 0.505 | 0.504 | 1.01 | 0.913 | 0.831 | 1.05
NCI-H647 | 1.26 | 0.959 | 0.767 | 0.657 | 0.624 | 0.531 | 0.562 | 0.343 | 1.36 | 0.823 | 0.622 | 0.463 | 0.264 | 0.193 | 0.215 | 0.157 | 0.954 | 0.824 | 0.734 | 0.794
NCI-H1755 | 0.926 | 0.904 | 0.701 | 0.965 | 0.771 | 0.659 | 0.695 | 0.685 | 1.07 | 0.937 | 0.811 | 0.936 | 0.429 | 0.401 | 0.388 | 0.411 | 0.989 | 0.987 | 0.811 | 1.04
SW 1573 | 1.11 | 0.964 | 0.901 | 1.25 | 0.786 | 0.761 | 0.633 | 0.337 | 1.1 | 0.944 | 1.16 | 1.23 | 0.741 | 0.389 | 0.46 | 0.382 | 1.06 | 0.938 | 0.903 | 0.81
UMC-11 | 0.287 | 0.322 | 0.295 | 0.265 | 0.356 | 0.349 | 0.358 | 0.281 | 1.2 | 1.04 | 0.868 | 0.751 | 0.467 | 0.429 | 0.467 | 0.401 | 1.05 | 0.958 | 0.816 | 0.795
HCC-15 | 0.687 | 0.675 | 0.646 | 0.735 | 1.03 | 0.803 | 0.732 | 0.815 | 0.983 | 0.843 | 0.81 | 0.816 | 0.632 | 0.541 | 0.492 | 0.559 | 1.07 | 0.923 | 0.91 | 0.942
NCI-H2228 | 0.96 | 0.952 | 1.1 | 1.3 | 0.541 | 0.773 | 0.593 | 0.279 | 1.51 | 1.08 | 0.865 | 0.263 | 0.577 | 0.41 | 0.545 | 0.245 | 1.18 | 1.1 | 0.811 | 0.447
NCI-H2087 | 1.09 | 0.933 | 1.04 | 1.08 | 0.63 | 0.49 | 0.682 | 0.471 | 1.27 | 0.871 | 0.846 | 1.06 | 0.97 | 0.77 | 0.784 | 0.768 | 1.26 | 1.02 | 1.08 | 0.979
BEN | 0.448 | 0.0733 | 0.0662 | 0.0697 | 0.609 | 0.547 | 0.541 | 0.636 | 0.707 | 0.699 | 0.703 | 0.708 | 0.314 | 0.295 | 0.319 | 0.33 | 0.929 | 0.925 | 0.967 | 0.981
PC-3 [JPC-3] | 0.826 | 0.83 | 0.859 | 0.892 | 1.08 | 0.736 | 0.921 | 0.898 | 0.436 | 0.456 | 0.431 | 0.439 | 1.12 | 1.07 | 1.16 | 0.966 | 1.13 | 1.01 | 1.04 | 1.1
NCI-H23 | 0.917 | 0.794 | 0.742 | 0.741 | 0.668 | 0.51 | 0.564 | 0.539 | 1.32 | 0.888 | 0.994 | 1.19 | 0.878 | 0.713 | 0.716 | 0.749 | 1.13 | 0.805 | 0.804 | 0.842
COR-L23 | 1.09 | 0.961 | 0.893 | 1 | 0.454 | 0.537 | 0.387 | 0.37 | 1.08 | 0.962 | 0.514 | 0.743 | 0.543 | 0.525 | 0.458 | 0.525 | 1.06 | 0.95 | 0.758 | 0.95
NCI-H1915 | 0.772 | 0.777 | 0.729 | 0.857 | 0.49 | 0.508 | 0.383 | 0.482 | 1 | 0.867 | 0.705 | 0.737 | 0.46 | 0.317 | 0.289 | 0.286 | 1.03 | 0.942 | 0.793 | 0.87
